Results from patent publication US20210315799A1, “Composition for Promoting Differentiation or Proliferation of Human Adipose-Derived Stem Cell” (LG Household & Health Care Ltd., priority 2018, published 2021).

Key:
Format in all cases: cell-based
[1] = system: human adipose-derived stem cells; assay: Cell activity / proliferation by CCK-8 kit (Example 6); details: for cell activity rates / proliferation of human adipose-derived stem cells compared to a control: FIG. 6; for concentration at which the substance showed the highest cell activity: tested at 0.2 ppm, 2 ppm and 20 ppm
Method: Human adipose-derived stem cells were purchased from Lonza, Inc. (Walkersville, Md., USA) and incubated in a CO2 incubator at 37° C. under 5% CO2 conditions. After the human adipose-derived stem cells were treated with 0.2 ppm, 2 ppm, and 20 ppm, respectively, cell activities thereof were identified using a CCK-8 kit (Dojindo).

[2] = system: human adipose-derived stem cells; assay: Oil Red O staining of differentiated adipose cells, observed by microscope (Example 2); details: treated 14 days; compared with negative control treated only with differentiation medium; FIG. 1
Method: (§1) Human adipose-derived stem cells were purchased from Lonza, Inc. (Walkersvile, Md., USA) and cultured according to guidelines of Lonza, Inc. Differentiation into adipose cells was evaluated using a differentiation medium recommended by Lonza, Inc. As a positive control, the cells were treated with 1 μM rosiglitazone together with the differentiation medium. In order to induce differentiation of human adipose-derived stem cells into adipose cells, a cell culture solution was removed at 3 to 5 days after cell culturing was initiated, and the cells were treated with formononetin, acetyl mandelic acid, Magnoliae cortex extract, and the positive control for 14 days.
(§2) At 14 days after differentiation was initiated, the cell culture solution was removed, and the cells were washed with a phosphate buffer (DPBS) and immobilized using 10% formalin. The immobilized cells were observed using a microscope after staining fats and lipids contained in the adipose cells with Oil Red 0.

[3] = system: human adipose-derived stem cells; assay: Quantified differentiation: eluted Oil Red O, absorbance at 490 nm (Example 3); details: Oil Red O eluted with isopropanol, absorbance 490 nm; compared with negative control (differentiation medium only); FIG. 2
Method: as §1, §2
Cultured human adipose-derived stem cells were treated with 12 types of the compounds including formononetin and a Magnoliae cortex extract and an Aloe vera extract in the same manner as in Example 2. Stained Oil Red 0 was eluted using a 100% isopropanol solution, and absorbance thereof was measured at a wavelength of 490 nm and quantified. […] It was confirmed that the substances according to the present invention promoted differentiation of human adipose-derived stem cells into adipose cells and effectively promoted differentiation into adipose cells compared to non-differentiation substances such as kaempferol. Thus, the compositions including the substances according to the present invention may be used for anti-aging purposes to enhance skin elasticity and reduce skin wrinkles by promoting differentiation of human adipose-derived stem cells and increasing the number of subcutaneous fat cells.

Row | Compound | cell activity rates / proliferation of human adipose-derived stem cells compared to a control [1] | concentration at which the substance showed the highest cell activity [1] [ppm] | effects on differentiation of human adipose-derived stem cells into adipose cells (Oil Red O staining) [2] | relative differentiation rate of human adipose-derived stem cells into adipose cells [3]
1 | O=C(O)CCCC[C@@H]1CCSS1 (racemic) [thioctic acid] | significantly increased | 20 |  | 
2 | CC(=O)OC(C(=O)O)c1ccccc1 (stereo not shown) [acetyl mandelic acid, O-acetyl mandelic acid] |  |  | superior to those of the negative control | effectively promote differentiation
3 | O=C(O)/C=C/c1ccc(O)c(O)c1 [caffeic acid] | significantly increased | 20 |  | effectively promote differentiation
4 | CC(C)c1cc2c(c(O)c1O)[C@@]1(C(=O)O)CCCC(C)(C)[C@@H]1CC2 [carnosic acid] | significantly increased | 2 |  | effectively promote differentiation
5 | Cc1cc(O)c2c(c1)C(=O)c1cc(O)cc(O)c1C2=O [emodin] |  |  |  | effectively promote differentiation
6 | COc1ccc(-c2coc3cc(O)ccc3c2=O)cc1 [formononetin] |  |  | superior to those of the negative control | effectively promote differentiation
7 | O=C(O)c1cc(O)c(O)c(O)c1 [gallic acid] | significantly increased | 20 |  | 
8 | CC1(C)[C@@H](O)CC[C@]2(C)[C@H]3C(=O)C=C4[C@@H]5C[C@@](C)(C(=O)O)CC[C@]5(C)CC[C@@]4(C)[C@]3(C)CC[C@@H]12 [glycyrrhetinic acid] | significantly increased | 20 |  | 
9 | O=C(O)/C=C/c1cccc(O)c1 [hydroxycinnamic acid, m-coumaric acid] |  |  |  | effectively promote differentiation
10 | O=c1c(O)c(-c2ccc(O)cc2)oc2cc(O)cc(O)c12 [kaempferol, reference compound] |  |  |  | non-differentiation
11 | Cc1cc2nc3c(=O)[nH]c(=O)nc-3n(C[C@H](O)[C@H](O)[C@H](O)CO)c2cc1C [lactoflavin, riboflavin] | significantly increased | 20 |  | 
12 | CC(C)=CCC[C@@H](C)[C@H]1CC[C@@]2(C)C3=C(CC[C@]12C)[C@@]1(C)CC[C@H](O)C(C)(C)[C@@H]1CC3 [lanosterol] | significantly increased | 2 |  | 
13 | CC1=CC(=O)c2ccccc2C1=O [menadione] | significantly increased | 0.2 |  | 
14 | CCCCCCCCCCCCCCCC(N)=O [palmitamide] |  |  |  | effectively promote differentiation
15 | CC(=O)CCc1ccc(O)cc1 [raspberry ketone] | significantly increased | 20 |  | 
16 | Cc1cc(S(=O)(=O)[O-])c2c(C)ccc(C(C)C)cc1-2.[Na+] [sodium guaiazulene sulfonate] |  |  |  | effectively promote differentiation
17 | Cc1cc2nc3c(=O)[nH]c(=O)nc-3n(C[C@H](O)[C@H](O)[C@H](O)COP(=O)([O-])O)c2cc1C.[Na+] [sodium riboflavin phosphate] | significantly increased | 20 |  | 
18 | O=c1cccccc1O [tropolone] | significantly increased | 2 |  | 
19 | COC1=C(OC)C(=O)C(C/C=C(\C)CC/C=C(\C)CC/C=C(\C)CC/C=C(\C)CC/C=C(\C)CC/C=C(\C)CC/C=C(\C)CC/C=C(\C)CC/C=C(\C)CCC=C(C)C)=C(C)C1=O [ubiquinone, ubiquinone 10] |  |  |  | effectively promote differentiation
20 | CC1=C[C@H](O)CC(C)(C)[C@H]1/C=C/C(C)=C/C=C/C(C)=C/C=C/C=C(C)/C=C/C=C(C)/C=C/C1=C(C)C[C@@H](O)CC1(C)C [xanthophyll, lutein] | significantly increased | 20 |  | effectively promote differentiation
21 | laccaic acid |  |  |  | effectively promote differentiation
22 | terpineol | significantly increased | 20 |  | 
